Test results as given in patent US20260248780A1, “PHARMACEUTICAL COMPOSITIONS” (Birdie Biopharmaceuticals, Inc., priority 2017, published 2026).

How the values were obtained:
Assay type in all cases: physicochemical
[1] = pKa determination on Sirius T3
Protocol: The mixtures of freebase and acid were stirred at RT for 2.5 days. Clear solutions obtained were slurried at 5° C. overnight to induce precipitation. If the samples were still clear, they would be subjected to evaporation to dryness at RT, in order to maximize the chance of identifying as many crystalline hits as possible. Resulted solids were isolated and analyzed by XRPD.
pKa was determined on Sirius T3 TM according to the manufacturer's instructions and the parameters for pKa test was listed in Table 5-13.

[2] = Hygroscopicity: DVS isotherm at 25° C.; settings: for hygroscopicity: DVS at 25° C.; for water uptake up to 80% RH: 25° C./80% RH
Protocol: DVS isotherm plot was collected at 25° C. to investigate the solid form stability as a function of humidity. […] For the possible hydrate/solvate di-HCl salt Type A, solids were equilibrated at ambient humidity (~30% RH) before testing. DVS was measured via a SMS (Surface Measurement Systems) DVS Intrinsic. The relative humidity at 25° C. were calibrated against deliquescence point of LiCl, Mg(NO3)2 and KCl. DVS isotherm plot was collected at 25° C. to investigate the solid form stability as a function of humidity for anhydrate Type A (807919-05-A). Solids were pre-dried at 0% RH to remove the unbounded solvent or water before started. […] DVS was measured via a SMS (Surface Measurement Systems) DVS Intrinsic. The relative humidity at 25° C. were calibrated against deliquescence point of LiCl, Mg(NO3)2 and KCl.

[3] = HPLC purity of clear samples after kinetic solubility test; settings: clear sample after kinetic solubility test, FeSSIF
Protocol: After being centrifuged and separated using 0.45 μm Nylon filter, filtrates were collected for HPLC and pH test, and wet cakes for XRPD characterization. If clear solutions were obtained after 24 hours, accurate concentration and purity were measured for the solutions.

[4] = Polymorph screening of freebase Type A (solid form by XRPD)

SMILES: CCOCc1nc2c(N)nc3ccccc3c2n1CC(C)(C)O [Freebase Type A, 1-[4-amino-2-(ethoxymethyl)imidazo-[4,5-c]-quinolin-1-yl]-2-methylpropan-2-ol]
- pKa [1]: 7.2
- hygroscopicity ([2]; listed as Type A): non-hygroscopic
- hygroscopicity ([2]; listed as freebase Type A): non-hygroscopic
- Water Uptake at 25° C./80% RH ([2]; DVS, 25° C., up to 80% RH): 0.1%
- water uptake up to 80% RH ([2]; DVS, listed as Type A): 0.1%
- water uptake up to 80% RH ([2]; DVS, listed as freebase Type A): 0.1%
- Form Change Post DVS Test ([2]; XRPD after DVS): No
- Form Change Post DVS Test ([2]; XRPD pre and post DVS, listed as Type A): no form change
- Form Change Post DVS Test ([2]; XRPD pre and post DVS, listed as freebase Type A): no form change
- HPLC Purity % of Initial [3]: 99.9%
- HPLC Purity Area % [3]: 99.25 Area %
- Solid Form ([4]; anti-solvent addition: solvent 1,4-dioxane, anti-solvent Toluene, solids after stirring at 5° C. for 2 days): Type A
- Solid Form ([4]; anti-solvent addition: solvent 2-MeTHF, anti-solvent n-heptane): Type A + B
- Solid Form ([4]; anti-solvent addition: solvent Acetone, anti-solvent H2O, no solid at 5° C., then evaporation): Type A
- Solid Form ([4]; anti-solvent addition: solvent Acetone, anti-solvent MTBE, no solid at 5° C., then evaporation): Type B
- Solid Form ([4]; anti-solvent addition: solvent CHCl3, anti-solvent MTBE): Type A
- Solid Form ([4]; anti-solvent addition: solvent CHCl3, anti-solvent n-heptane): Type A + B
- Solid Form ([4]; anti-solvent addition: solvent DCM, anti-solvent Anisole): Clear
- Solid Form ([4]; anti-solvent addition: solvent DCM, anti-solvent Toluene): Type A
- Solid Form ([4]; anti-solvent addition: solvent DMAc, anti-solvent H2O): Type A
- Solid Form ([4]; anti-solvent addition: solvent DMSO, anti-solvent H2O): Type A
- Solid Form ([4]; anti-solvent addition: solvent EtOH, anti-solvent Anisole, no solid at 5° C., then evaporation): Type G
- Solid Form ([4]; anti-solvent addition: solvent EtOH, anti-solvent n-heptane): Type A
- Solid Form ([4]; anti-solvent addition: solvent Ethyl lactate, anti-solvent n-heptane): Type A + Sample H
- Solid Form ([4]; anti-solvent addition: solvent IBA, anti-solvent Toluene, no solid at 5° C., then evaporation): Type B
- Solid Form ([4]; anti-solvent addition: solvent IPA, anti-solvent H2O, no solid at 5° C., then evaporation): Clear
- Solid Form ([4]; anti-solvent addition: solvent MeOH, anti-solvent H2O): Type A
- Solid Form ([4]; anti-solvent addition: solvent MeOH, anti-solvent MTBE, solids after stirring at 5° C. for 2 days): Type A
- Solid Form ([4]; anti-solvent addition: solvent NMP, anti-solvent H2O): Type A
- Solid Form ([4]; anti-solvent addition: solvent THF, anti-solvent H2O, no solid at 5° C., then evaporation): Type A
- Solid Form ([4]; anti-solvent addition: solvent THF, anti-solvent n-heptane): Type A + B
- Solid Form ([4]; liquid vapor diffusion, RT 6 days: solvent 2-MeTHF, anti-solvent Toluene): Type A
- Solid Form ([4]; liquid vapor diffusion, RT 6 days: solvent Acetone, anti-solvent n-heptane): Type A
- Solid Form ([4]; liquid vapor diffusion, RT 6 days: solvent CHCl3, anti-solvent Toluene): Type A + B
- Solid Form ([4]; liquid vapor diffusion, RT 6 days: solvent DCM, anti-solvent n-heptane): Type A
- Solid Form ([4]; liquid vapor diffusion, RT 6 days: solvent DMAc, anti-solvent MTBE): Type D
- Solid Form ([4]; liquid vapor diffusion, RT 6 days: solvent EtOH, anti-solvent H2O): Type A
- Solid Form ([4]; liquid vapor diffusion, RT 6 days: solvent Ethyl lactate, anti-solvent MTBE): Clear
- Solid Form ([4]; liquid vapor diffusion, RT 6 days: solvent IBA, anti-solvent n-heptane): Clear
- Solid Form ([4]; liquid vapor diffusion, RT 6 days: solvent NMP, anti-solvent MTBE): Type E
- Solid Form ([4]; liquid vapor diffusion, RT 6 days: solvent THF, anti-solvent H2O): Type B
- Solid Form ([4]; polymer induced crystallization: Acetone, Polymer mixture A): Type A
- Solid Form ([4]; polymer induced crystallization: Acetone, Polymer mixture B): Type A
- Solid Form ([4]; polymer induced crystallization: MeOH, Polymer mixture A): Type A
- Solid Form ([4]; polymer induced crystallization: MeOH, Polymer mixture B): Type B
- Solid Form ([4]; polymer induced crystallization: THF, Polymer mixture A): Type A
- Solid Form ([4]; polymer induced crystallization: THF, Polymer mixture B): Type A
- Crystal Form ([4]; screening summary: Anti-solvent Addition, 20 experiments): Type A, B, G, sample H
- Crystal Form ([4]; screening summary: Polymer-induced Crystallization, 6 experiments): Type A, B
- Crystal Form ([4]; screening summary: Slow Cooling, 10 experiments): Type A, B, F, G
- Crystal Form ([4]; screening summary: Slow Evaporation, 10 experiments): Type A, B
- Crystal Form ([4]; screening summary: Slurry at RT/50° C., 31 experiments): Type A, C
- Crystal Form ([4]; screening summary: Solid Vapor Diffusion, 13 experiments): Type A, C
- Crystal Form ([4]; screening summary: Solution Vapor Diffusion, 10 experiments): Type A, B, D, E
- Crystal Form ([4]; screening summary: Total, 100 experiments): Type A~G, sample H
- Solid Form ([4]; slow cooling, then −20° C.: ACN): Type A
- Solid Form ([4]; slow cooling, then −20° C.: Acetone/H2O (1:3)): Type A
- Solid Form ([4]; slow cooling, then −20° C.: Anisole, limited solid, then evaporation at RT): Type G
- Solid Form ([4]; slow cooling, then −20° C.: CHCl3/MTBE (1:3)): Type B
- Solid Form ([4]; slow cooling, then −20° C.: EtOAc): Type A
- Solid Form ([4]; slow cooling, then −20° C.: EtOH/n-heptane (1:3)): Type A
- Solid Form ([4]; slow cooling, then −20° C.: IPAc): Type A
- Solid Form ([4]; slow cooling, then −20° C.: MEK): Type F
- Solid Form ([4]; slow cooling, then −20° C.: MIBK): Type A + B
- Solid Form ([4]; slow cooling, then −20° C.: THF/toluene (1:3)): Type A + B
- Solid Form ([4]; slow evaporation at RT: 2-MeTHF/n-heptane (1:1)): Type B
- Solid Form ([4]; slow evaporation at RT: ACN): Type A + B
- Solid Form ([4]; slow evaporation at RT: Acetone): Type A
- Solid Form ([4]; slow evaporation at RT: CHCl3/n-heptane (1:1)): Type A + B
- Solid Form ([4]; slow evaporation at RT: DCM): Type A
- Solid Form ([4]; slow evaporation at RT: EtOAc): Type B
- Solid Form ([4]; slow evaporation at RT: EtOH/H2O (1:1)): Type A
- Solid Form ([4]; slow evaporation at RT: IPA): Type A
- Solid Form ([4]; slow evaporation at RT: MeOH): Type A
- Solid Form ([4]; slow evaporation at RT: THF): Type A
- Solid Form ([4]; slurry at 50° C., about 3 days: 1,4-dioxane): Type C
- Solid Form ([4]; slurry at 50° C., about 3 days: 2-MeTHF): Type A
- Solid Form ([4]; slurry at 50° C., about 3 days: ACN): Type A
- Solid Form ([4]; slurry at 50° C., about 3 days: Anisole): Type A
- Solid Form ([4]; slurry at 50° C., about 3 days: CHCl3/toluene (1:5)): Type A
- Solid Form ([4]; slurry at 50° C., about 3 days: EtOAc): Type A
- Solid Form ([4]; slurry at 50° C., about 3 days: H2O): Type A
- Solid Form ([4]; slurry at 50° C., about 3 days: IBA): Type A
- Solid Form ([4]; slurry at 50° C., about 3 days: IPA): Type A
- Solid Form ([4]; slurry at 50° C., about 3 days: IPAc): Type A
- Solid Form ([4]; slurry at 50° C., about 3 days: MEK): Type A
- Solid Form ([4]; slurry at 50° C., about 3 days: MIBK): Type A
- Solid Form ([4]; slurry at 50° C., about 3 days: MeOH/H2O (1:5)): Type A
- Solid Form ([4]; slurry at 50° C., about 3 days: THF/n-heptane (1:5)): Type A
- Solid Form ([4]; slurry at RT, 3 days: 1,4-dioxane): Type A
- Solid Form ([4]; slurry at RT, 3 days: 2-MeTHF): Type A
- Solid Form ([4]; slurry at RT, 3 days: ACN): Type A
- Solid Form ([4]; slurry at RT, 3 days: Anisole): Type A
- Solid Form ([4]; slurry at RT, 3 days: DCM/toluene (1:3)): Type A
- Solid Form ([4]; slurry at RT, 3 days: EtOAc): Type A
- Solid Form ([4]; slurry at RT, 3 days: IBA): Type A
- Solid Form ([4]; slurry at RT, 3 days: IPA): Type A
- Solid Form ([4]; slurry at RT, 3 days: IPAc): Type A
- Solid Form ([4]; slurry at RT, 3 days: MEK): Type A
- Solid Form ([4]; slurry at RT, 3 days: MIBK): Type A
- Solid Form ([4]; slurry at RT, 3 days: MeOH/H2O (1:3)): Type A
- Solid Form ([4]; slurry at RT, 3 days: THF/n-heptane (1:3)): Type A
- Solid Form ([4]; slurry at RT, 3 days: acetone/H2O (aw = 0.2)): Type A
- Solid Form ([4]; slurry at RT, 3 days: acetone/H2O (aw = 0.4)): Type A
- Solid Form ([4]; slurry at RT, 3 days: acetone/H2O (aw = 0.6)): Type A
- Solid Form ([4]; slurry at RT, 3 days: acetone/H2O (aw = 0.8)): Type A
- Solid Form ([4]; solid vapor diffusion, RT 7 days: 1,4-dioxane): Type C
- Solid Form ([4]; solid vapor diffusion, RT 7 days: ACN): Type A
- Solid Form ([4]; solid vapor diffusion, RT 7 days: Acetone): Type A
- Solid Form ([4]; solid vapor diffusion, RT 7 days: CHCl3): Type A
- Solid Form ([4]; solid vapor diffusion, RT 7 days: DCM): Type A
- Solid Form ([4]; solid vapor diffusion, RT 7 days: DMF): Type A
- Solid Form ([4]; solid vapor diffusion, RT 7 days: DMSO): Type A
- Solid Form ([4]; solid vapor diffusion, RT 7 days: EtOAc): Type A
- Solid Form ([4]; solid vapor diffusion, RT 7 days: EtOH): Type A
- Solid Form ([4]; solid vapor diffusion, RT 7 days: H2O): Type A
- Solid Form ([4]; solid vapor diffusion, RT 7 days: IPA): Type A
- Solid Form ([4]; solid vapor diffusion, RT 7 days: MeOH): Type A
- Solid Form ([4]; solid vapor diffusion, RT 7 days: THF): Type A
